From patent US8183262B2, “Pyridine derivatives as mGluR2 antagonists” (Hoffmann-La Roche Inc., priority 2007, dated 2012)

What was measured:
rat mGlu2 receptor = molecular target: T1, rat mGlu2 receptor (Rattus norvegicus, UniProt P31421); experiment: [3H]-LY354740 binding on mGlu2 transfected CHO cell membranes; conditions: inhibition of 10 nM [3H]-LY354740 binding, membranes of CHO cells transfected with rat mGlu2, room temperature, 1 hour
T1 construct: expressed in transfected cells; membranes prepared
T1 sequence (P31421 19-872): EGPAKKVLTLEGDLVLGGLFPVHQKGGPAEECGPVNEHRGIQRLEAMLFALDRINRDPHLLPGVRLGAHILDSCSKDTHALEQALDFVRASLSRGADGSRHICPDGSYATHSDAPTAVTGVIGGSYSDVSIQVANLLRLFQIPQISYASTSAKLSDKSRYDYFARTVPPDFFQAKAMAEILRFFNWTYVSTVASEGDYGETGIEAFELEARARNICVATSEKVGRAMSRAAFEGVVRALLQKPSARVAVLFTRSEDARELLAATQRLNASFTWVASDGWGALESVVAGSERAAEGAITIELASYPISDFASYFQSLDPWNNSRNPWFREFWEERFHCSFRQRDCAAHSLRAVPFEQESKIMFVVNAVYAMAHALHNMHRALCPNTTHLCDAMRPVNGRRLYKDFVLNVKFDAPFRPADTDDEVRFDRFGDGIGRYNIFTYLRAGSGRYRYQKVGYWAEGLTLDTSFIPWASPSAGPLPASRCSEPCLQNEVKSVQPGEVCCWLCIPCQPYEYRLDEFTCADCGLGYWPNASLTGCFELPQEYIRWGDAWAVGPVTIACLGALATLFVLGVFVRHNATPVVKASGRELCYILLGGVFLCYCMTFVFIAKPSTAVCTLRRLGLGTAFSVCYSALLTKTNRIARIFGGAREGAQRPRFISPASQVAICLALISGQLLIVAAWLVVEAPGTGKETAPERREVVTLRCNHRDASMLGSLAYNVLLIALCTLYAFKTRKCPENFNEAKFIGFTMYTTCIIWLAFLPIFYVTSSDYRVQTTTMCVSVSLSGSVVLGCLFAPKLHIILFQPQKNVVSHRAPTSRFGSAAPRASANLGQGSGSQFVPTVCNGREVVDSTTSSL
From the text: [^3H]-LY354740 Binding on mGlu2 Transfected CHO Cell Membranes. Transfection and Cell Culture
cDNA encoding the rat mGlu2 receptor protein in pBluescript II was subcloned into the eukaryotic expression vector pcDNA I-amp from Invitrogen Ltd (Paisley, UK). This vector construct (pcD1mGR2) was co-transfected with a psvNeo plasmid encoding the gene for neomycin resistance, into CHO cells by a modified calcium phosphate method described by Chen & Okayama (1988). The cells were maintained in Dulbecco's Modified Eagle medium with reduced L-glutamine (1 mM final concentration), 36 mg/L L-Proline and 10% dialysed foetal calf serum from Gibco-Invitrogen; the medium was supplemented with 500 microM α-methyl-4-carboxyphenylglycine (MCPG). Selection was made in the presence of G-418 (300 ug/ml final concentration). Clones were identified by reverse transcription of 5 μg total RNA, followed by PCR using mGlu2 receptor specific primers 5′-[…]-3′ and 5′-[…]-3′ in 60 mM Tris HCl (pH 10), 15 mM (NH4)2SO4, 2 mM MgCl2, 25 units/ml Taq Polymerase with 30 cycles annealing at 60° C. for 1 min., extention at 72° C. for 30 s, and 1 min. 95° C. denaturation.
Cells, cultured as above, were harvested and washed three times with cold PBS and frozen at −80° C. The pellet was resuspended in cold 20 mM HEPES-NaOH buffer containing 10 mM EDTA (pH 7.4), and homogenised with a polytron (Kinematica, A G, Littau, Switzerland) for 10 s at 10 000 rpm. After centrifugation for 30 min. at 4° C., the pellet was washed once with cold 20 mM HEPES-NaOH buffer containing 0.1 mM EDTA, (pH 7.4). After a second centrifugation for 30 min. at 4° C. the pellet was resuspended in cold 20 mM HEPES-NaOH buffer containing 0.1 mM EDTA, (pH 7.4). Protein content was measured using the Micro BCA method from Pierce-Perbio (Rockford, Ill., USA) using bovine serum albumin as standard.
After thawing, the membranes were resuspended in cold 50 mM Tris-HCl buffer containing 2 mM MgCl2 (pH 7.4) (binding buffer). The final concentration of the membranes in the assays was 25 μg protein/ml. Inhibition experiments were performed with membranes incubated with 10 nM [^3H]-LY354740 at room temperature, for 1 hour, in presence of various concentrations of the compound to be tested. Following the incubations, membranes were filtered onto Whatmann GF/B glass fiber filters or onto GF/B Unifilter plates and washed 5 times with cold binding buffer. Non specific binding was measured in the presence of 10 μM (2S,2′R,3′R)-2-(2′3′-Dicarboxycyclopropyl)glycine (DCG IV from Tocris, Ellisville, Mo. USA). After transfer of the filters into plastic vials containing 10 ml of Ultima-gold scintillation fluid from Perkin-Elmer (Boston, Mass., USA), the radioactivity was measured by liquid scintillation in a Tri-Carb 2500 TR counter (Packard, Zürich, Switzerland). For 96-Unifilter plates the radioactivity was measured after addition of Microscint 40 scintillation fluid (Perkin Elmer, Boston Mass.) using a TopCount NXT (Packard)
The inhibition curves were fitted with a four parameter logistic equation giving IC50 values, and Hill coefficients.

Ki (rat mGlu2 receptor) [nM] | melting point [°C] | SMILES
28 | > 250 | Cc1nc(-c2cn(-c3cc(C(F)(F)F)cc(-c4ccc(C(F)(F)F)cc4)n3)cn2)sc1S(=O)(=O)NC(C)(C)C [Example 292, 4-Methyl-2-{1-[4-trifluoromethyl-6-(4-trifluoromethyl-phenyl)-pyridin-2-yl]-1H-imidazol-4-yl}-thiazole-5-sulfonic acid tert-butylamide]
3 | 238.5 | CS(=O)(=O)c1cccc(-c2cc(-c3nc(-c4ccc(C(F)(F)F)cc4)cc(C(F)(F)F)n3)ccn2)c1 [Example 218, 2-[2-(3-Methanesulfonyl-phenyl)-pyridin-4-yl]-4-trifluoromethyl-6-(4-trifluoromethyl-phenyl)-pyrimidine]
10 | 194 to 196 | Nc1ccc(-c2cc(-c3cc(C(F)(F)F)cc(-c4ccc(C(F)(F)F)cc4)n3)ccn2)cn1 [Example 74, 4-Trifluoromethyl-6-(4-trifluoromethyl-phenyl)-[2,4′;2′,3″]terpyridin-6″-ylamine]
5 | 217 | Cc1cc(-c2ccc(C(F)(F)F)cc2)cc(-c2ccnc(-c3ccnc(N)c3)n2)n1 [Example 360, 4-{4-[6-Methyl-4-(4-trifluoromethyl-phenyl)-pyridin-2-yl]-pyrimidin-2-yl}-pyridin-2-ylamine]
44 | 215 to 217 | Cc1cc(-c2ccc(C(F)(F)F)cc2)cc(-c2cccc(-c3cnc(N)nc3)c2)n1 [Example 70, 5-{3-[6-Methyl-4-(4-trifluoromethyl-phenyl)-pyridin-2-yl]-phenyl}-pyrimidin-2-ylamine]
6 | 227 | Cc1cc(-c2ccc(C(F)(F)F)cc2)cc(-c2cccc(-c3cc(S(N)(=O)=O)c(F)cc3F)c2)n1 [Example 270, 4,6-Difluoro-3′-[6-methyl-4-(4-trifluoromethyl-phenyl)-pyridin-2-yl]-biphenyl-3-sulfonic acid amide]
12.4 | 113 | CN(C)S(=O)(=O)Nc1cccc(-c2cccc(-c3nc(-c4ccc(C(F)(F)F)cc4)cc(C(F)(F)F)n3)c2)c1 [Example 222, N-{3′-[4-Trifluoromethyl-6-(4-trifluoromethyl-phenyl)-pyrimidin-2-yl]-biphenyl-3-yl}-N′,N′-dimethyl-sulfamide]

The remaining lines, values behind:

SMILES | Ki (rat mGlu2 receptor) [nM] | melting point [°C]
Cc1cc(-c2cccc(-c3nc(-c4ccc(C(F)(F)F)cc4)cc(C(F)(F)F)n3)c2)cc(C)n1 [Example 42, 2-[3-(2,6-Dimethyl-pyridin-4-yl)-phenyl]-4-trifluoromethyl-6-(4-trifluoromethyl-phenyl)-pyrimidine] | 140 | 159
Nc1ccc(-c2cccc(-c3nc(-c4ccc(C(F)(F)F)cc4)cc(C(F)(F)F)n3)c2)cn1 [Example 26, 5-{3-[4-Trifluoromethyl-6-(4-trifluoromethyl-phenyl)-pyrimidin-2-yl]-phenyl}-pyridin-2-ylamine] | 14 | 205
Nc1ccc(-c2noc(-c3nc(-c4ccc(C(F)(F)F)cc4)cc(C(F)(F)F)n3)n2)cn1 [Example 11, 5-{5-[4-Trifluoromethyl-6-(4-trifluoromethyl-phenyl)-pyrimidin-2-yl]-[1,2,4]oxadiazol-3-yl}-pyridin-2-ylamine] | 21.6 | 218.5
FC(F)(F)c1ccc(-c2cc(C(F)(F)F)nc(-c3cccc(-c4cccnc4)c3)n2)cc1 [Example 33, 2-(3-Pyridin-3-yl-phenyl)-4-trifluoromethyl-6-(4-trifluoromethyl-phenyl)-pyrimidine] | 17 | 194
Nc1ccc(-c2cccc(-c3cc(C(F)(F)F)cc(-c4ccc(C(F)(F)F)cc4)n3)c2)cn1 [Example 60, 5-{3-[4-Trifluoromethyl-6-(4-trifluoromethyl-phenyl)-pyridin-2-yl]-phenyl}-pyridin-2-ylamine] | 32 | 170 to 172
